Measurements: US9447047B2 (priority 2012, dated 2016)
“Also recorded” adds a separate entry of the source. Where two headings read alike, the source gives them in different places.

How the values were obtained:
CEM cells [1] = assay: cells; settings: Homo sapiens, CCRF-CEM
[2] = test system: HIV-1 transcription in CEM-GFP cells; assay: Tat-dependent HIV-1 transcription LTR-GFP reporter assay in CEM-GFP cells infected with Ad-Tat; assay type: cell-based
EBOV VP30 = assay type: cell-based
EBOV transcription = assay type: cell-based
EBOV-eGFP = assay type: cell-based
[3] = test system: Tat-induced HIV transcription in 293T cells; assay: Tat-induced HIV transcription in 293T cells transfected with HIV-1 LTR reporter and Tat vectors; assay type: cell-based
HIV-1 = assay: Inhibition of HIV-1 replication; assay type: cell-based
[4] = test system: Tat-driven nuclear localization of PP1α; assay type: cell-based
[5] = Control cell viability assays (FIG. 18)
[6] = molecular target: PP1 association with NIPP1, PNUTS and Tat (Homo sapiens, UniProt P62136); assay type: cell-based
PP1 association with NIPP1, PNUTS and Tat, sequence (P62136 2-330 limits assumed): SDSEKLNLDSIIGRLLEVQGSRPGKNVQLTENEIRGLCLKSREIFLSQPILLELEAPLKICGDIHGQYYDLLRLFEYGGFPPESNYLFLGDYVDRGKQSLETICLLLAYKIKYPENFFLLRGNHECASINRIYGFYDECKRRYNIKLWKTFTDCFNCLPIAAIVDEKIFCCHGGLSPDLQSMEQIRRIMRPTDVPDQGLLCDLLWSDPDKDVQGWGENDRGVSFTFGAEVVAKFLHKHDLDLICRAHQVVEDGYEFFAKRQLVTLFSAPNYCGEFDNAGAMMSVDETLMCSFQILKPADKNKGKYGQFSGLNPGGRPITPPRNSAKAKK

CEM cells [7] = test system: CEM cells
293T cells = assay: Global cellular proteome of 293T cells by LC-MS-MS; settings: 10 μM for 18 h
[8] = test system: interaction of Tat with PP1α; assay type: cell-based; settings: 10 μM, 293T cells
PP1α = PP1α (Homo sapiens, UniProt P62136); assay: Dephosphorylation of generic KT(pT)IRR peptide by recombinant PP1α (malachite green); assay type: biochemical
PP1α, sequence (P62136 whole entry): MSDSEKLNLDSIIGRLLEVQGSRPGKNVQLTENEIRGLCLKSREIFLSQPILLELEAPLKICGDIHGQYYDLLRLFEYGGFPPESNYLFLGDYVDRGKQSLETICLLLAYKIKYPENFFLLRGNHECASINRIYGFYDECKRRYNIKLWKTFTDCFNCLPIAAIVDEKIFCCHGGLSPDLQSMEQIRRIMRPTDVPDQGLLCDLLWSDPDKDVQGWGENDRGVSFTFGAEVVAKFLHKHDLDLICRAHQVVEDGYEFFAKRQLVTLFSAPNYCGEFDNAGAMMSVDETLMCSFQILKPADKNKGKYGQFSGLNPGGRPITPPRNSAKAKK

[9] = read-out: Toxicity in CEM cells, (IC50, μM)
[10] = Human immunodeficiency virus 1, CEM-GFP, 48 h, read-out: Inhibition of HIV-1 Transcription in CEM-GFP cells (IC50, μM)
[11] = read-out: Toxicity in CEM cells, IC50
[12] = Human immunodeficiency virus 1; read-out: 50% Inhibition of HIV-1 replication

CCC(c1nnc(SCC(=O)Nc2ncc(-c3ccc(F)cc3)s2)n1Cc1ccccc1)N(C)C (stereo not drawn) [T5251659]
IC50 (CEM cells [1]; [9]): 6 µM | IC50 [2, 10]: 10 µM

O=S(=O)(Nc1ccc(S(=O)(=O)N2CCC(Cc3ccccc3)CC2)cn1)c1ccccc1 [T5481237]
IC50 (CEM cells [1]; [9]): 20 µM | IC50 [2, 10]: 15 µM

C=C1[C@@H](O)[C@@H]2O[C@]3(CC[C@H](/C=C/[C@@H](C)[C@@H]4CC(C)=C[C@@]5(O[C@H](C[C@@](C)(O)C(=O)O)CC[C@H]5O)O4)O3)CC[C@H]2O[C@@H]1[C@@H](O)C[C@H](C)[C@H]1O[C@@]2(CCCCO2)CC[C@H]1C [okadaic acid, reference compound]
VP30 phosphorylation (EBOV VP30): increased

CC(OC(=O)c1ccccc1SCC(=O)Nc1ccc2c(c1)OCO2)C(=O)NCCC1=CCCCC1 (stereo not drawn) [T5369370]
IC50 (CEM cells [1]; [9]): 15 µM | IC50 [2, 10]: 10 µM

CN(C1CCCCC1)S(=O)(=O)c1ccc(NC(=O)COc2ccccc2-c2ccccc2)cc1 [T5551920]
IC50 (CEM cells [1]; [9]): 15 µM | IC50 [2, 10]: 15 µM

CCNC(=O)NC(=O)C(C)OC(=O)c1c2c(nc3ccccc13)/C(=C/c1ccc(OC)c(OC)c1)CC2 (stereo not drawn) [1E7-03]
toxicity (Vero-E6 cells): without any detectable cytotoxicity | IC50 (CEM cells [1]; [11]): > 20 µM | EBOV transcription (EBOV transcription): inhibits EBOV transcription | VP30 phosphorylation (EBOV VP30): increased | increase of VP30 phosphorylation (EBOV VP30): 2.7 fold | inhibition of EBOV replication (EBOV-eGFP): completely suppressed | potency in HIV-1 transcription inhibition in 293T cells (comparison) [3]: equally potent as 1E7 | HIV-1 inhibition (HIV-1; FIG. 18): potent HIV-1 inhibitor | IC50 (HIV-1; [12]): 3000 nM | translocation of Tat and PP1 into the nucleus ([4]; fluorescence in nucleus and cytoplasm fractions): inhibited | cell viability [5]: maintains the most viability

CC(OC(=O)c1c2c(nc3ccccc13)/C(=C/c1cccs1)CCC2)C(=O)NC1CC1 (stereo not drawn) [1E7-05]
toxicity (Vero-E6 cells): some toxicity | toxicity (cell monolayer, words) (Vero-E6 cells): visible toxicity | inhibition of EBOV replication (EBOV-eGFP): highly potent

COCCNC(=O)OC(=O)c1c2c(nc3ccccc13)/C(=C\c1ccc(O)cc1)CCC2 [1H4]
Tat association with PP1 (microcystin precipitation) [6]: reduced | interaction of PP1 with PNUTS or NIPP1 [6]: without any effect; also recorded: no effect | IC50 (CEM cells [1]; [9]): > 25 µM | IC50 (CEM cells [1]; [11]): 30 µM | cytotoxicity / toxicity in T cells (CEM cells [7]): not cytotoxic | IC50 [2, 10]: 12.5 µM | IC50 ([2]; Human immunodeficiency virus 1, read-out: Inhibition Tat-induced HIV transcription in CEM cells, IC50): 10 µM | effect on cellular proteome (293T cells): did not significantly change | PP1α-EGFP co-precipitated with Tat [8]: reduced; also recorded: prevents the interaction | association of Tat with CDK9/cyclin T1 [8]: no effect | effect on PP1 enzymatic activity (Vmax and Km, KT(pT)IRR peptide) (PP1α): minimal effect; also recorded: no effect | initial velocity V0 of KT(pT)IRR peptide dephosphorylation by PP1α (PP1α; 1H4 300 μM, without compound V0=1.4): 1.3 μM·min^−1 | IC50 ([3]; Human immunodeficiency virus 1, HEK-293T, read-out: Inhibition Tat-induced HIV transcription in 293T cells, IC50): 5 µM | IC50 (HIV-1; Human immunodeficiency virus 1, read-out: 50% Inhibition of HIV-1 replication): 10000 nM | nuclear PP1α-EGFP fluorescence ([4]; 293T cells, nuclear fraction, vs untreated or 1G3): significant decrease | nuclear localization of PP1α in the presence of Tat ([4]; HeLa cells, 10 μM, 18 hours): drastically diminished; also recorded: disrupts

CCNC(=O)NC(=O)C(C)OC(=O)c1c2c(nc3ccccc13)/C(=C\c1cccs1)CCC2 (stereo not drawn) [1E7-04]
toxicity (Vero-E6 cells): some toxicity | toxicity (cell monolayer, words) (Vero-E6 cells): visible toxicity | IC50 (CEM cells [1]; [11]): 7 µM | inhibition of EBOV replication (EBOV-eGFP): highly potent | IC50 (HIV-1; [12]): 3000 nM

O=C(CNC(=O)c1ccccc1SCC(=O)NC12CC3CC(CC(C3)C1)C2)Nc1ccc(Cl)cc1 [T5498680]
IC50 (CEM cells [1]; [9]): 5 µM | IC50 [2, 10]: 5 µM

CCN(CC)S(=O)(=O)c1ccc2c(c1)nc(CCC(=O)N(C)c1ccc(C(F)(F)F)cc1)n2C [T5326526]
IC50 (CEM cells [1]; [9]): 10 µM | IC50 [2, 10]: 15 µM
